Reference: patent US20250281679A1, “BIOMIMETIC COATING FOR ENDOVASCULAR STENT” (INSERM (Institut National de la Santé et de la Recherche …, priority 2021, published 2025)
Square brackets hold non-standard residues; d marks the D form. Primed or numbered codes have the meaning given here. Ends that are not written are not given here. Lys(N3) = [N-]=[N+]=NCCCC[C@H](N)C(=O)O; PEG4′ = not defined here

Legend:
[1] = test system: Human aortic endothelial cells; assay: Human aortic endothelial cells grown 48 h on bare or peptide-coated nitinol disks; F-actin and CD31 fluorescence image analysis; format: cell-based
Method: Nitinol disks are left untouched (bare metal) or coated with a domain 1, domain 2 or domain 1 and 2 CD31 analog peptide. The tested peptide is grafted to the nitinol disk following a polydopamine, DBCO-PEG4-amine and azide CD31 derivative peptide using a sequential dip-coating layering procedure. After this step, all the disks are incubated with Human aortic endothelial cells for 48h. Disks are then rinsed and the cells are fixed in a formalin solution before staining. The staining is fulfilled using phalloidin coupled to AlexaFluor®488 dye (green fluorescence for Actin), DAPI is used for DNA staining and a domain 1 CD31 antibody coupled to APC is used for external Domain 1 staining. The cell adhesion and Actin/CD31 expression was evaluated by image analysis of the surface after staining.
In particular, as per FIG. 2 the bare or coated nitinol disks were placed at the bottom of culture wells. Primary Human Aortic Endothelial Cells (HAEC) were allowed to grow on the disks for a period of 48 h. The disks were thereafter rinsed with phosphate buffered saline, fixed in formalin, and processed for fluorescence microscopy. Disk-adherent cells were immersed in a solution comprising Hoechst 33342 (1 μg/ml, to stain the nuclei), phalloidin coupled to AlexaFluor®488 dye (0.5 μM, to stain F-actin fibers) and a monoclonal antibody directed against CD31 domain 1, coupled to allophycocyanin (to detect the presence and localization of intact CD31 at the cell surface) for 1 hour at 37° C., washed and mounted face down on glass bottom imaging chambers for imaging with an inverted fluorescence microscope.
Surface type is indicated on the Y axis, data are expressed as average±SD (N=6/surface type). Each dot corresponds to a specific surface modification. The F-actin expression relates the cellular stress of the cell in presence of the exogenous material.
In FIG. 4 the surface type is indicated on the Y axis. Each dot corresponds to a specific surface modification. Data are expressed as “Integrated Density” average±SD (N=6/surface type). CD31 expression relates the capacity of endothelial cells to adopt a physiologic phenotype while growing on a given substrate. An important variability is observed in terms of CD31 expression by HAEC according to the surface modification of the nitinol disks.
The effect of different peptides, belonging to the different groups, were tested in batches following the same protocol as in FIG. 6. Different peptides from each group were tested in batches and the effect of individual peptides was repeatedly assessed in separate experiments. Data from all experiments were obtained by computer-assisted analysis of images of the disk side covered with endothelial cells, captured in the blue, green and red channel of an inverted fluorescence microscope. The functional score of the peptides belonging to the different groups was calculated by multiplying the number of cells (as detected by the number of blue, Dapi+ nuclei) for the integrated density of CD31 expression (red signal provided by the binding of a mouse anti-human CD31 monoclonal antibody, clone 9G11, conjugated allophycocyanin) and their product being divided for the integrated density of the F-actin polymerization (Phalloidin coupled to a green fluorochrome).
The same protocol as in Example 1 was followed, using peptides according to the invention (SP547, SP548 SP745, SP1374, SP1072, SP1070, SP1071, SP1379 and SP1383) as defined above and the prior art peptide P8RI of sequence KWPALFVR (SEQ ID NO: 52).
The “CD31/Actin” score, resulting from the integrated density of CD31 immunostaining signal divided by the signal of phalloidin, which binds to the polymerized F-actin of the cytoskeleton, has been used to identify the physiological/non-stressed character of the arterial endothelial cells growing onto the surface of experimental disks placed at the bottom of culture wells. […]

[2] = test system: New Zealand White rabbits; assay: Coated flow-diverter stents (CFD) implanted in aneurysm-carrying artery and abdominal aorta of the rabbit aneurysm model, with aspirin and clopidogrel; SEM and histopathology; format: in vivo
From the text: Flow-diverter stents (CFD) are braided meshes made of nitinol, from Sinomed. They are coated by one of the following coatings: • 1. SP1072 peptide according to the invention, or • 2. Hydrophilic polymer eG NTMA (obtained from the electrografting of N-[Tris(hydroxymethyl)Methyl] Acrylamide).
A total of 8 healthy New Zealand White rabbits (including 2 spare animals), male and female, weighing about 3 kg, were included in this study. A total of 3 observation time points of 7 days, 30 days and 60 days postoperatively were set. The experiment was divided into two steps: 1) aneurysm animal modeling; 2) implantation of a dense mesh stent in the aneurysm-carrying artery and abdominal aorta for each animal. The stent implantation in the aneurysm-carrying artery was to be used to examine the safety and effectiveness of the stent in treating aneurysms, and the stent implantation in the abdominal aorta, covering a pair of lumbar arteries, was to be used to examine the safety of the tested stent.
The test group was implanted with a dense mesh stent system in the aneurysm location (common carotid artery) and in the abdominal aorta of the animal model, and the control group was implanted with a dense mesh stent system in the aneurysm-carrying artery, where the abdominal aorta was implanted with the device to evaluate the effect of the stent on the penetrating and branch vessels.
In addition to heparin sodium injection 150 U/kg by IV during implantation, antiplatelet therapy (aspirin and clopidogrel) was given to the animals at 5 mg/kg each by feeding once a day for 3 days before surgery and at 5 mg/kg each by feeding postoperative to endpoint.
The collected tissues of the stented segments of the carrier arteries were preserved in 10% neutral formalin for more than 48 hours of immersion fixation, dehydrated in alcohol gradient and treated with xylene transparency for histopathological analysis.
The resin-embedded stented segment of the aneurysm-carrying artery was sectioned transversely through the neck of the aneurysm, with one slice cut at the aneurysm and two slices cut at the non-aneurysm, and stained with HE; the non-stented segment was paraffin-embedded, with one slice cut at the proximal and one at the distal end; HE staining was performed for histopathological evaluation.
One animal each at 7D (7 days), 30D (30 days) and 60D (60 days) was randomly selected, and the aneurysm-carrying artery and abdominal aorta implanted at the above time points were collected for SEM to observe the endothelialization of the flow-directed stent at the aneurysm neck site and the opening site of the branch vessels at the abdominal aorta site.

[3] = test system: New Zealand White rabbits; assay: Coated flow-diverter stents (CFD) in the rabbit aneurysm model, no aspirin nor clopidogrel after implantation; format: in vivo; conditions: 7 days, n=3, no aspirin nor clopidogrel after the implantation; preliminary
From the text: The same materials and protocol as in Example 3 were used, except that: • Only 3 animals were used for each condition, and. • No aspirin nor clopidogrel was given to animals after the implantation.

[4] = day 7, aneurysm-carrying artery, HE staining, FIG. 29
[5] = day 60, aneurysm-carrying artery, FIG. 30

Substance: YKSTVIVNNKEKTTAE-PEG4-K(N3)-CONH2 (YKSTVIVNNKEKTTAE[PEG4′][Lys(N3)]-NH2) [SP1072]
- CD31/Actin score ([1]; Example 2, FIG. 25, compared to bare metal disks or disks coated with PDA alone): significantly higher
- CD31 expression, Integrated Density ([1]; HAEC 48 h on coated nitinol disks, anti-CD31 domain 1 antibody, compared to other modified disks and bare controls, FIGS. 2, 4, 5): evident positive effect in terms of CD31 expression
- ratio between CD31 and F-actin expression ([1]; compared to bare metal and disks coated with PDA only, FIG. 6): higher CD31/actin ratio
- endothelialization of the device at sites other than the aneurysm entry (conclusion) ([2]; Example 3 conclusion): fast and complete without apparent inflammation nor neointima
- endothelialization on the inner surface of the flow-diverter stents (conclusion) ([2]; Example 3 conclusion): promotes early endothelialization on the inner surface of the flow-diverter stents
- neo arterial wall at the entry of the aneurysm sac and thrombus inside the sac (conclusion) ([2]; Example 3 conclusion): promotes the growth of an organized, blood-impermeable neo arterial wall at the entry of the aneurysm sac
- entry of fresh blood into the aneurysmal sac / thrombus (histopathology) [2, 4]: fresh blood is no longer allowed to enter and remain trapped there
- organization of the thrombus in the aneurysmal sac (histopathology) [2, 4]: organized
- inflammation/thrombosis of the arterial wall in contact with the stent struts (histopathology) [2, 5]: absence of inflammation/thrombosis of the arterial wall that is already in contact with the stent struts
- organization of the thrombus in the aneurysmal sac (histopathology) [2, 5]: very well organized
- survival and thrombus after implantation [3]: still alive with no thrombus
